Results as given in ChEMBL document CHEMBL1139479, “Enantioselective nonsteroidal aromatase inhibitors identified through a multidisciplinary medicinal chemistry approach” (J Med Chem, 2005).

Target: T1, CYP17 (steroid 17-alpha-hydroxylase/17,20 lyase) (Homo sapiens, UniProt P05093)
T1 sequence (P05093 whole entry): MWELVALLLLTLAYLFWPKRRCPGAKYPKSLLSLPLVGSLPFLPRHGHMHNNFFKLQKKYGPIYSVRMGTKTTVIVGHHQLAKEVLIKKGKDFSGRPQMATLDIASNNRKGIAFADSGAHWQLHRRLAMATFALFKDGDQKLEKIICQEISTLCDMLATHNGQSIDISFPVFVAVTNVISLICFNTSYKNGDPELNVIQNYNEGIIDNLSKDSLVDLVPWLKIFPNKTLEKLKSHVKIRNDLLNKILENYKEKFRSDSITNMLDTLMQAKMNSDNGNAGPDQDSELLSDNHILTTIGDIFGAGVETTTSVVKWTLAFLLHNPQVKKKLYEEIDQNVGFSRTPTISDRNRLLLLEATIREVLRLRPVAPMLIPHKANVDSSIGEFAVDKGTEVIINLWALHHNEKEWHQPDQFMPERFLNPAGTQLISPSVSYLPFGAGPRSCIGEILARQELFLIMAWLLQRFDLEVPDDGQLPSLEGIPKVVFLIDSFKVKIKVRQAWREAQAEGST
Test: in vitro
Description: Inhibition of human CYP17 expressed in Escherichia coli at 2.5 uM

Compound	inhibition at 2.5 µM
O=c1c([C@H](c2ccc(Br)cc2)n2ccnc2)coc2ccccc12	13%
O=c1c([C@@H](c2ccc(Br)cc2)n2ccnc2)coc2ccccc12	17%
N#Cc1ccc([C@H](c2coc3ccccc3c2=O)n2ccnc2)cc1	6%
N#Cc1ccc([C@@H](c2coc3ccccc3c2=O)n2ccnc2)cc1	6%
O=c1c([C@H](c2ccc([N+](=O)[O-])cc2)n2ccnc2)coc2ccccc12	12%
O=c1c([C@@H](c2ccc([N+](=O)[O-])cc2)n2ccnc2)coc2ccccc12	20%
